How the values were obtained:
[1] = system: Candida albicans (ATCC #10231); assay: Microtiter assay, MIC to inhibit 90% growth; assay type: cell-based; conditions: 24 hours, n = 3
Protocol: (§1) For assays to find minimum inhibitory concentrations, all treatments were diluted in 10% DMSO and 0.5% Tween 80 to stabilize the samples.
(§2) Microorganisms Escherichia coli (ATCC #8739), Streptococcus sanguinis (ATCC #BAA-1455), Salmonella enteria subsp. enterica (ex Kauffmann and Edwards) Le Minor and Popoff serovar Typhimurium (ATCC #14028), Staphylococcus aureus (ATCC #6538), Pseudomonas aeruginosa (ATCC #9027), and Candida albicans (ATCC #10231) were obtained from a −80° C. internal stock culture. Aspergillus brasiliensis (ATCC #16404) was obtained from an internal stock solution culture stored at 4° C. E. coli, S. enterica S. aureus, and P. aeruginosa were grown in tryptic soy broth (TSB) and incubated at 37° C. for 24 h. S. sanguinis was grown in brain heart infusion broth (BHI). A. brasiliensis was plated on Sabourand dextrose agar (SDA) and incubated at 25° C. for 5-7 days. C. albicans was grown in Sabourand dextrose broth (SDB) and incubated at 25° C. for 48 h.
(§3) A. brasiliensis was harvested by adding 18 mL sterile saline to the plate and agitating the mold from the agar with a sterile inoculating loop. The inoculum was collected upon agitation. All suspended microbes were diluted with the same type of broth media used to grow each organism until an inoculum in the range of 10^6 CFU/mL was achieved. The inoculum concentration was determined by plate count method. Each strain was identified by plating on the appropriate growth media, E. coli, S. aureus, and P. aeruginosa on tryptic soy agar (Bacto, BD Sciences, Manassas, Va.) and C. albicans and A. brasiliensis on Sabrouand dextrose agar, to ensure there was no contamination of the inoculum.
(§4) Microtiter Assay. A microtiter assay was completed E. coli, S. aureus, P. aeruginosa, S. enteria, S. sanguinis, and C. albicans. Briefly, 10^6 cfu/ml preparations of each organism were made and enumerated using a Petroff-Hausser counting chamber. A 100 μl aliquot of the inoculums was dispensed into microtiter plate wells and a 100 μl aliquot of treatment was dispensed into the same wells. Two separate set of wells were prepared as positive and negative controls, with the positive wells containing 100 μl test organism in growth media and 100 μl sterile phosphate buffer and with the negative control wells containing 100 μl of the same growth media and 100 μl sterile phosphate buffer. The plates were incubated overnight at the appropriate temperature for each organism. A plate reader was used to track the kinetic growth curve using 405 nm and […]. The last time point at 24 hours was averaged and used to determine MIC90. Each treatment was conducted in triplicate wells.

[2] = system: Escherichia coli (ATCC #8739); assay: Microtiter assay, MIC to inhibit 90% growth; assay type: cell-based; conditions: 24 hours, n = 3
Protocol: as §1, §2, §3, §4

[3] = system: Staphylococcus aureus (ATCC #6538); assay: Microtiter assay, MIC to inhibit 90% growth; assay type: cell-based; conditions: 24 hours, n = 3
Protocol: as §1, §2, §3, §4

[4] = system: Streptococcus sanguinis (ATCC #BAA-1455); assay: Microtiter assay, MIC to inhibit 90% growth; assay type: cell-based; conditions: 24 hours, n = 3
Protocol: as §1, §2, §3, §4

[5] = system: Pseudomonas aeruginosa (ATCC #9027); assay: Microtiter assay, MIC to inhibit 90% growth; assay type: cell-based; conditions: 24 hours, n = 3
Protocol: as §1, §2, §3, §4

Salmonella enterica = assay: Microtiter assay, MIC to inhibit 90% growth; assay type: cell-based; conditions: 24 hours, n = 3
Protocol: as §1, §2, §3, §4

A. brasiliensis = assay: Poison agar assay; assay type: cell-based, Aspergillus brasiliensis
Protocol: as §2, §3
A poison agar assay was completed for A. brasiliensis. Potato dextrose agar was used as the plated medium. Inocula at 10^5 cfu/ml were prepared and counted using a Petroff-Hausser counting chamber. Each treatment was added directly into the control without DMSO and Tween 80 as used in the previous experiments. The diameter of no growth around a 6 mm blank disk after incubation at 25° C. for 72 hrs was compared to the untreated control.

Question: Which results are given for Cc1ccc(C(C)C)cc1O [Carvacrol, carvacrol]?
Answer: Minimum Inhibitory Concentration (MIC) to inhibit 90% growth, C. albicans [1]: 0.10%; Minimum Inhibitory Concentration (MIC) to inhibit 90% growth, E. coli [2]: 0.10%; Minimum Inhibitory Concentration (MIC) to inhibit 90% growth, S. aureus [3]: 0.05%; Minimum Inhibitory Concentration (MIC) to inhibit 90% growth, S. sanguinis [4]: 0.05%; Minimum Inhibitory Concentration (MIC) to inhibit 90% growth, P. aeruginosa [5]: >0.1%; Minimum Inhibitory Concentration (MIC) to inhibit 90% growth, S. enterica (Salmonella enterica): 0.05%; % Inhibition from Control (A. brasiliensis; 0.005% in agar): 15.10%; Diameter of Growth (A. brasiliensis; 0.005% in agar): 6.50 mm; % Inhibition from Control (A. brasiliensis; 0.010% in agar): 64.70%; Diameter of Growth (A. brasiliensis; 0.010% in agar): 2.70 mm; % Inhibition from Control (A. brasiliensis; 0.030% in agar): 100.00%; Diameter of Growth (A. brasiliensis; 0.030% in agar): 0.00 mm; MIC90 in the poison agar assay (A. brasiliensis; potato dextrose agar, 25° C., 72 hrs): 0.03%
